Data published in US11053204B2, “Pyrimidinyloxy benzene derivatives as herbicides” (FMC Corporation, priority 2015, dated 2021).

Tests used:
Format in all cases: in vivo
[1] = system: morningglory (Ipomoea coccinea); assay: Test C preemergence, plant response rating; conditions: Preemergence
How it was run: (§1)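 After sowing in loam–sand blend or silt loam, pots were sprayed preemergence; separately grown 1- to 4-leaf plants were sprayed postemergence. Following 13 to 15 d under greenhouse conditions, injury was rated visually on a 0 to 100 scale.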

soybean (Glycine max) [2] = assay: Test C preemergence, plant response rating; conditions: Preemergence
How it was run: as §1

[3] = system: waterhemp (common waterhemp, Amaranthus rudis); assay: Test C preemergence, plant response rating; conditions: Preemergence
How it was run: as §1

[4] = system: wheat (winter wheat, Triticum aestivum); assay: Test C preemergence, plant response rating; conditions: Preemergence
How it was run: as §1

[5] = system: blackgrass (Alopecurus myosuroides); assay: Test C preemergence, plant response rating; conditions: Preemergence
How it was run: as §1

[6] = system: ryegrass, Italian (Italian ryegrass, Lolium multiflorum); assay: Test C preemergence, plant response rating; conditions: Preemergence
How it was run: as §1

[7] = system: foxtail, giant (giant foxtail, Setaria faberii); assay: Test C preemergence, plant response rating; conditions: Preemergence
How it was run: as §1

[8] = system: crabgrass, large (large crabgrass, Digitaria sanguinalis); assay: Test C preemergence, plant response rating; conditions: Preemergence
How it was run: as §1

[9] = system: nutsedge, yellow (yellow nutsedge, Cyperus esculentus); assay: Test C preemergence, plant response rating; conditions: Preemergence
How it was run: as §1

[10] = system: oilseed rape (Brassica napus); assay: Test C preemergence, plant response rating; conditions: Preemergence
How it was run: as §1

corn (Zea mays) [11] = assay: Test C preemergence, plant response rating; conditions: Preemergence
How it was run: as §1

[12] = system: lambsquarters (Chenopodium album); assay: Test C preemergence, plant response rating; conditions: Preemergence
How it was run: as §1

[13] = system: velvetleaf (Abutilon theophrasti); assay: Test C preemergence, plant response rating; conditions: Preemergence
How it was run: as §1

soybean (Glycine max) [14] = assay: Test C postemergence, plant response rating; conditions: for Soybean plant response rating: scale 0 to 100 (0 no effect, 100 complete control)
How it was run: as §1

[15] = system: galium (catchweed bedstraw, Galium aparine); assay: Test C postemergence, plant response rating; conditions: for Galium plant response rating: scale 0 to 100 (0 no effect, 100 complete control)
How it was run: as §1

[16] = system: waterhemp (common waterhemp, Amaranthus rudis); assay: Test C postemergence, plant response rating
How it was run: as §1

[17] = system: foxtail, giant (giant foxtail, Setaria faberii); assay: Test C postemergence, plant response rating; conditions: for Foxtail, Giant plant response rating: scale 0 to 100 (0 no effect, 100 complete control)
How it was run: as §1

[18] = system: crabgrass, large (large crabgrass, Digitaria sanguinalis); assay: Test C postemergence, plant response rating; conditions: for Crabgrass, Large plant response rating: scale 0 to 100 (0 no effect, 100 complete control)
How it was run: as §1

kochia (Kochia scoparia) = assay: Test C postemergence, plant response rating; conditions: for Kochia plant response rating: scale 0 to 100 (0 no effect, 100 complete control)
How it was run: as §1

[19] = system: oilseed rape (Brassica napus); assay: Test C postemergence, plant response rating; conditions: for Oilseed Rape plant response rating: scale 0 to 100 (0 no effect, 100 complete control)
How it was run: as §1

corn (Zea mays) [20] = assay: Test C postemergence, plant response rating; conditions: for Corn plant response rating: scale 0 to 100 (0 no effect, 100 complete control)
How it was run: as §1

O=C(CCCC(F)(F)F)c1c(Oc2ncc(Cl)cn2)cccc1C(F)(F)F [Compound 125]
Plant response rating, Morningglory ([1]; 125 g ai/ha, scale of 0 to 100): 50 | Plant response rating, Morningglory ([1]; 31 g ai/ha, scale 0 to 100): 10 | Plant response rating, Morningglory ([1]; 62 g ai/ha, scale 0 to 100): 10 | Plant response rating, Soybean (soybean (Glycine max) [2]; 125 g ai/ha, scale of 0 to 100): 20 | Plant response rating, Soybean (soybean (Glycine max) [2]; 31 g ai/ha, scale 0 to 100): 0 | Plant response rating, Soybean (soybean (Glycine max) [2]; 62 g ai/ha, scale 0 to 100): 0 | Plant response rating, Waterhemp ([3]; 125 g ai/ha, scale of 0 to 100): 100 | Plant response rating, Waterhemp ([3]; 31 g ai/ha, scale 0 to 100): 100 | Plant response rating, Waterhemp ([3]; 62 g ai/ha, scale 0 to 100): 100 | Plant response rating, Wheat ([4]; 125 g ai/ha, scale of 0 to 100): 5 | Plant response rating, Wheat ([4]; 31 g ai/ha, scale 0 to 100): 0 | Plant response rating, Wheat ([4]; 62 g ai/ha, scale 0 to 100): 0 | Plant response rating, Blackgrass ([5]; 125 g ai/ha, scale of 0 to 100): 90 | Plant response rating, Blackgrass ([5]; 16 g ai/ha, scale 0 to 100): 5 | Plant response rating, Blackgrass ([5]; 31 g ai/ha, scale 0 to 100): 60 | Plant response rating, Blackgrass ([5]; 62 g ai/ha, scale 0 to 100): 60 | Plant response rating, Ryegrass, Italian ([6]; 125 g ai/ha, scale of 0 to 100): 85 | Plant response rating, Ryegrass, Italian ([6]; 31 g ai/ha, scale 0 to 100): 30 | Plant response rating, Ryegrass, Italian ([6]; 62 g ai/ha, scale 0 to 100): 40 | Plant response rating, Foxtail, Giant ([7]; 125 g ai/ha, scale of 0 to 100): 100 | Plant response rating, Foxtail, Giant ([7]; 31 g ai/ha, scale 0 to 100): 85 | Plant response rating, Foxtail, Giant ([7]; 62 g ai/ha, scale 0 to 100): 98 | Plant response rating, Crabgrass, Large ([8]; 125 g ai/ha, scale of 0 to 100): 100 | Plant response rating, Crabgrass, Large ([8]; 16 g ai/ha, scale 0 to 100): 35 | Plant response rating, Crabgrass, Large ([8]; 31 g ai/ha, scale 0 to 100): 98 | Plant response rating, Crabgrass, Large ([8]; 62 g ai/ha, scale 0 to 100): 100 | Plant response rating, Nutsedge, Yellow ([9]; 125 g ai/ha, scale of 0 to 100): 5 | Plant response rating, Nutsedge, Yellow ([9]; 31 g ai/ha, scale 0 to 100): 0 | Plant response rating, Nutsedge, Yellow ([9]; 62 g ai/ha, scale 0 to 100): 0 | Plant response rating, Oilseed Rape ([10]; 125 g ai/ha, scale of 0 to 100): 80 | Plant response rating, Oilseed Rape ([10]; 31 g ai/ha, scale 0 to 100): 5 | Plant response rating, Oilseed Rape ([10]; 62 g ai/ha, scale 0 to 100): 50 | Plant response rating, Corn (corn (Zea mays) [11]; 125 g ai/ha, scale of 0 to 100): 5 | Plant response rating, Corn (corn (Zea mays) [11]; 16 g ai/ha, scale 0 to 100): 0 | Plant response rating, Corn (corn (Zea mays) [11]; 31 g ai/ha, scale 0 to 100): 0 | Plant response rating, Corn (corn (Zea mays) [11]; 62 g ai/ha, scale 0 to 100): 5 | Plant response rating, Lambsquarters ([12]; 125 g ai/ha, scale of 0 to 100): 95 | Plant response rating, Lambsquarters ([12]; 31 g ai/ha, scale 0 to 100): 30 | Plant response rating, Lambsquarters ([12]; 62 g ai/ha, scale 0 to 100): 60 | Plant response rating, Velvetleaf ([13]; 125 g ai/ha, scale of 0 to 100): 65 | Plant response rating, Velvetleaf ([13]; 31 g ai/ha, scale 0 to 100): 5 | Plant response rating, Velvetleaf ([13]; 62 g ai/ha, scale 0 to 100): 60 | Plant response rating, Soybean (soybean (Glycine max) [14]; 16 g ai/ha, scale of 0 to 100): 25 | Plant response rating, Soybean (soybean (Glycine max) [14]; 31 g ai/ha, scale 0 to 100): 60 | Soybean plant response rating (soybean (Glycine max) [14]; 62 g ai/ha): 65 | Soybean plant response rating (soybean (Glycine max) [14]; 125 g ai/ha): 70 | Plant response rating, Galium ([15]; 16 g ai/ha, scale of 0 to 100): 65 | Plant response rating, Galium ([15]; 31 g ai/ha, scale 0 to 100): 70 | Galium plant response rating ([15]; 62 g ai/ha): 80 | Galium plant response rating ([15]; 125 g ai/ha): 90 | Plant response rating, Waterhemp ([16]; 16 g ai/ha, scale of 0 to 100): 75 | Plant response rating, Waterhemp ([16]; 31 g ai/ha, scale 0 to 100): 80 | Waterhemp plant response rating ([16]; 125 g ai/ha, scale 0 to 100 (0 no effect, 100 complete control)): 90 | Plant response rating, Foxtail, Giant ([17]; 16 g ai/ha, scale of 0 to 100): 10 | Plant response rating, Foxtail, Giant ([17]; 31 g ai/ha, scale 0 to 100): 10 | Foxtail, Giant plant response rating ([17]; 62 g ai/ha): 10 | Foxtail, Giant plant response rating ([17]; 125 g ai/ha): 25 | Plant response rating, Crabgrass, Large ([18]; 16 g ai/ha, scale of 0 to 100): 10 | Plant response rating, Crabgrass, Large ([18]; 31 g ai/ha, scale 0 to 100): 10 | Crabgrass, Large plant response rating ([18]; 62 g ai/ha): 15 | Crabgrass, Large plant response rating ([18]; 125 g ai/ha): 20 | Plant response rating, Kochia (kochia (Kochia scoparia); 16 g ai/ha, scale of 0 to 100): 85 | Plant response rating, Kochia (kochia (Kochia scoparia); 31 g ai/ha, scale 0 to 100): 90 | Kochia plant response rating (kochia (Kochia scoparia); 62 g ai/ha): 95 | Kochia plant response rating (kochia (Kochia scoparia); 125 g ai/ha): 98 | Plant response rating, Oilseed Rape ([19]; 16 g ai/ha, scale of 0 to 100): 80 | Plant response rating, Oilseed Rape ([19]; 31 g ai/ha, scale 0 to 100): 85 | Oilseed Rape plant response rating ([19]; 62 g ai/ha): 90 | Oilseed Rape plant response rating ([19]; 125 g ai/ha): 95 | Plant response rating, Corn (corn (Zea mays) [20]; 16 g ai/ha, scale of 0 to 100): 10 | Plant response rating, Corn (corn (Zea mays) [20]; 31 g ai/ha, scale 0 to 100): 10 | Corn plant response rating (corn (Zea mays) [20]; 62 g ai/ha): 15 | Corn plant response rating (corn (Zea mays) [20]; 125 g ai/ha): 20
